The structures appear in SMILES notation.

By IC50 is commonly meant the concentration that inhibits the measured activity by half. Read a high IC50 as a need for much substance.

The target of the test is Protein tyrosine phosphatase type IVA 3 (Homo sapiens, UniProt O75365). Briefly: Inhibition of human PRL3 expressed in Escherichia coli BL21 (DE3).
Sequence of Protein tyrosine phosphatase type IVA 3 (O75365 whole entry): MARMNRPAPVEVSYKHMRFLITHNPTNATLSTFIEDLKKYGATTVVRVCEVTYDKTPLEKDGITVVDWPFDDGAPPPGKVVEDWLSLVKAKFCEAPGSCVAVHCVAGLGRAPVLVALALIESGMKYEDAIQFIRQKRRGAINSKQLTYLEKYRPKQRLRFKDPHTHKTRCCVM
Compound `COc1ccc(-n2nnnc2SCC(=O)c2ccc(O)c(O)c2)cc1` showed a half-maximal inhibitory concentration (IC50) of 44.7 µM.
Then `O=C1NC(=S)S/C1=C/c1ccc(-c2ccccc2C(=O)O)o1`, with 13.3 µM; and `O=C1NC(=O)/C(=C\c2cccn2-c2ccc(C(=O)O)cc2)N1`, with 28.1 µM.
The compound `C=CCn1c(SCC(=O)c2ccc(O)c(O)c2)nnc1-c1cccc(Cl)c1` showed a 50% inhibitory concentration (IC50) of 43.8 µM.
Then `N#CC1=C(S)N(c2ccccc2)C(/C=C/c2ccc(-c3ccc(Cl)cc3)o2)NC1=O` (stereo not given), with 18.3 µM.

(Values after ChEMBL document CHEMBL1141551, “Discovery of novel PRL-3 inhibitors based on the structure-based virtual screening” (Bioorg Med Chem Lett, 2008).)
